Assay results published in patent US20260070895A1, “CRYSTALLINE FORMS” (QUIMATRYX, S.L., priority 2022, published 2026).
Converted amounts (≈) assume the structure as drawn. Like-named read-outs stand apart in the source and are kept apart here.

Columns and labels:
Assay type in all cases: physicochemical
[1] = Photostability at solid state (chemical purity by HPLC after illumination); details: solid-state, unsealed clear glass bottles, forced illumination
Experimental: (§1) The method for determining purity by HPLC—used throughout these examples—used the following parameters:
(§2) The photostability of novel crystalline forms of QTX125 was assessed at solid state and in solution. Where ‘forced illumination’ conditions were used, samples were illuminated at 12 Klux/hour and 2.8 UV W/m^2/hour. Samples were stored at a temperature of 30° C. Following incubation, the chemical purity of QTX125 was measured by HPLC.
(§3) The following index is provided to aid navigation of the data presented in Tables 3.1.1 to 3.3.6: • 3.1.x—Assessment of the photostability of QTX125 Form 2. • 3.2.x—Assessment of the photostability of amorphous QTX125. • 3.3.x—Assessment of the photostability of the QTX125 1:2 L-Lysine adduct. • 3.x.1—Samples (at solid state) stored in unsealed clear glass bottles, subject to forced illumination. • 3.x.2—Samples (at solid state) sealed under nitrogen in clear glass bottles, subject to forced illumination. • 3.x.3—Samples (at solid state) sealed under nitrogen in amber glass bottles, illuminated under ambient laboratory conditions • 3.x.4—Samples (at solid state) sealed under nitrogen in amber glass bottles, subject to forced illumination. • 3.x.5—Samples (in solution) sealed under nitrogen in amber glass bottles, illuminated under ambient laboratory conditions. • 3.x.6—Samples (in solution) sealed under nitrogen in amber glass bottles, subject to forced illumination.

[2] = Photostability in solution (THF and water), HPLC; details: in solution (THF and water), sealed under nitrogen in amber glass bottles; for degradation (in words): up to 171 hours
Experimental: as §1, §2, §3

[3] = Aqueous solubility at 37° C. (HPLC of filtered suspension); details: 37° C.
Experimental: The solubility of novel crystalline forms of QTX125 was assessed in the following aqueous solutions: (i) phosphate buffer, pH 3.5, 0.9% w/v sodium chloride; (ii) phosphate buffer, pH 6.5, 0.9% w/v sodium chloride; (iii) acetate buffer, pH 4.5, 0.9% w/v sodium chloride; (iv) citro-phosphate buffer, pH 4.5, 0.9% w/v sodium chloride; (v) sodium chloride, 0.9% w/v and (vi) deionised water. All assays were completed at 37° C.
In brief, 30 mg QTX125 was dispensed into vessels followed by 5 mL of the appropriate aqueous buffer. Mixtures were suspended by agitation and heated to 37° C. At various fixed intervals, an 0.4 mL aliquot of the suspension was removed, filtered and diluted for examination by HPLC. A single HPLC reference sample was used.

[4] = ambient laboratory conditions, 0 hours
[5] = ambient laboratory conditions, 3 hours
[6] = ambient laboratory conditions, 26 hours
[7] = ambient laboratory conditions, 171 hours
[8] = ambient laboratory conditions, 171 hours, listed as Form 2
[9] = forced illumination, 171 hours, listed as Form 2
[10] = 0.9% w/v sodium chloride solution, saline or isotonic, thermodynamic from solid, buffer (v) sodium chloride, 0.9% w/v, read-out: concentration of QTX125 (solubility)
[11] = acetate buffer with 0.9% w/v sodium chloride, aqueous buffer, thermodynamic from solid, buffer (iii) acetate buffer, pH 4.5, 0.9% w/v sodium chloride, read-out: concentration of QTX125 (solubility)
[12] = citro-phosphate buffer with 0.9% w/v sodium chloride, aqueous buffer, thermodynamic from solid, buffer (iv) citro-phosphate buffer, pH 4.5, 0.9% w/v sodium chloride, read-out: concentration of QTX125 (solubility)
[13] = phosphate buffer with 0.9% w/v sodium chloride, aqueous buffer, thermodynamic from solid, buffer (i) phosphate buffer, pH 3.5, 0.9% w/v sodium chloride, read-out: concentration of QTX125 (solubility)
[14] = phosphate buffer with 0.9% w/v sodium chloride, aqueous buffer, thermodynamic from solid, buffer (ii) phosphate buffer, pH 6.5, 0.9% w/v sodium chloride, read-out: concentration of QTX125 (solubility)
[15] = thermodynamic from solid, buffer (vi) deionised water, read-out: concentration of QTX125 (solubility)

## O=C(NO)c1ccc(CNC(=O)c2[nH]c(-c3ccc(O)cc3)cc2-c2ccoc2)cc1 [QTX125 Form 2, 3-(3-Furyl)-N-{4-[(hydroxyamino)carbonyl]benzyl}-5-(4-hydroxyphenyl)-1H-pyrrole-2-carboxamide]
[1]; 171 hours
  HPLC peak area, RRT 1.04: 9.15%
  HPLC peak area, RRT 1.12: 0.52%
[1]; up to 171 hours
  degradation (in words): degrade to two principal components
[2]; [4]
  HPLC peak area, QTX125 RRT 1.00: 98.21%
  HPLC peak area, RRT 1.04: 0.98%
[2]; [5]
  HPLC peak area, QTX125 RRT 1.00: 97.50%
  HPLC peak area, RRT 1.04: 1.06%
[2]; [6]
  HPLC peak area, QTX125 RRT 1.00: 97.65%
  HPLC peak area, RRT 1.04: 0.93%
[2]; [7]
  HPLC peak area, QTX125 RRT 1.00: 91.10%
  HPLC peak area, RRT 1.04: 4.81%
  HPLC peak area, RRT 1.12: 0.83%
[2]; [8]
  HPLC peak area, QTX125 RRT 1.00: 91.10%
  HPLC peak area, RRT 1.04: 4.81%
  HPLC peak area, RRT 1.12: 0.83%
[2]; ambient laboratory conditions
  degradation (in words): degrade
[2]; forced illumination, 0 hours
  HPLC peak area, QTX125 RRT 1.00: 98.21%
  HPLC peak area, RRT 1.04: 0.98%
[2]; forced illumination, 3 hours
  HPLC peak area, QTX125 RRT 1.00: 97.30%
  HPLC peak area, RRT 1.04: 1.07%
[2]; forced illumination, 26 hours
  HPLC peak area, QTX125 RRT 1.00: 96.27%
  HPLC peak area, RRT 1.04: 1.09%
[2]; forced illumination, 171 hours
  HPLC peak area, QTX125 RRT 1.00: 81.65%
  HPLC peak area, RRT 1.04: 3.60%
  HPLC peak area, RRT 1.12: 0.86%
[2]; [9]
  HPLC peak area, QTX125 RRT 1.00: 81.65%
  HPLC peak area, RRT 1.04: 3.60%
  HPLC peak area, RRT 1.12: 0.86%
[2]; forced illumination
  degradation (in words): degrade
[3]; [10]
  solubility at 1 h: 0.68 µg/mL (≈ 1.63 µM)
  solubility at 4 h: 0.26 µg/mL (≈ 0.623 µM)
  solubility at 24 h: 0.81 µg/mL (≈ 1.94 µM)
[3]; 0.9% w/v sodium chloride solution, saline or isotonic, thermodynamic from solid, buffer (v) sodium chloride, 0.9% w/v, 7 hours, read-out: concentration of QTX125 (solubility)
  solubility at 7 h: 0.22 µg/mL (≈ 0.527 µM)
[3]; [11]
  solubility at 1 h: 0.25 µg/mL (≈ 0.599 µM)
  solubility at 4 h: 0.29 µg/mL (≈ 0.695 µM)
  solubility at 24 h: 0.5 µg/mL (≈ 1.2 µM)
[3]; acetate buffer with 0.9% w/v sodium chloride, aqueous buffer, thermodynamic from solid, buffer (iii) acetate buffer, pH 4.5, 0.9% w/v sodium chloride, 7 hours, read-out: concentration of QTX125 (solubility)
  solubility at 7 h: 0.19 µg/mL (≈ 0.455 µM)
[3]; aqueous buffers (i) to (v), aqueous buffer, thermodynamic from solid, buffers (i) to (v), 1 to 24 hours, read-out: concentration values range (solubility)
  solubility: 0.15 to 1.76 µg/mL (≈ 0.359 to 4.22 µM)
[3]; buffer (vi) deionised water, 7 hours
  concentration of QTX125 (solubility): 27.82 µg/mL
[3]; buffers (i) to (v)
  solubility (in words): very low
[3]; [12]
  solubility at 1 h: 0.32 µg/mL (≈ 0.767 µM)
  solubility at 4 h: 0.17 µg/mL (≈ 0.407 µM)
  solubility at 24 h: 0.4 µg/mL (≈ 0.958 µM)
[3]; citro-phosphate buffer with 0.9% w/v sodium chloride, aqueous buffer, thermodynamic from solid, buffer (iv) citro-phosphate buffer, pH 4.5, 0.9% w/v sodium chloride, 7 hours, read-out: concentration of QTX125 (solubility)
  solubility at 7 h: 0.17 µg/mL (≈ 0.407 µM)
[3]; deionised water (vi)
  PXRD analysis of the solid recovered at 24 hours: confirmed the entity as Form 2
[3]; [13]
  solubility at 1 h: 0.77 µg/mL (≈ 1.84 µM)
  solubility at 4 h: 0.15 µg/mL (≈ 0.359 µM)
  solubility at 24 h: 1.76 µg/mL (≈ 4.22 µM)
[3]; phosphate buffer with 0.9% w/v sodium chloride, aqueous buffer, thermodynamic from solid, buffer (i) phosphate buffer, pH 3.5, 0.9% w/v sodium chloride, 7 hours, read-out: concentration of QTX125 (solubility)
  solubility at 7 h: 0.5 µg/mL (≈ 1.2 µM)
[3]; [14]
  solubility at 1 h: 0.33 µg/mL (≈ 0.791 µM)
  solubility at 4 h: 0.15 µg/mL (≈ 0.359 µM)
  solubility at 24 h: 0.63 µg/mL (≈ 1.51 µM)
[3]; phosphate buffer with 0.9% w/v sodium chloride, aqueous buffer, thermodynamic from solid, buffer (ii) phosphate buffer, pH 6.5, 0.9% w/v sodium chloride, 7 hours, read-out: concentration of QTX125 (solubility)
  solubility at 7 h: 0.34 µg/mL (≈ 0.815 µM)
[3]; [15]
  solubility at 1 h: 17.8 µg/mL (≈ 42.6 µM)
  solubility at 4 h: 22.4 µg/mL (≈ 53.6 µM)
  solubility at 24 h: 16.6 µg/mL (≈ 39.7 µM)
[3]; thermodynamic from solid, deionised water (buffer vi), following 7 hours of incubation, read-out: peak solubility
  solubility at 7 h: 27.8 µg/mL (≈ 66.6 µM)
